Reference: US6984718B2, “Fluorescence dyes and their applications for whole-cell fluorescence screening assays for caspases, peptidases, proteases and other enzymes and the use thereof” (Cytovia, Inc., priority 1998, dated 2006)

Key:
recombinant caspase-3 = biological target: T1, recombinant caspase-3 (Homo sapiens, UniProt P42574); assay: Cleavage of fluorogenic substrate by recombinant caspase-3, cell-free; assay type: biochemical
T1 sequence (P42574 29-175 limits assumed): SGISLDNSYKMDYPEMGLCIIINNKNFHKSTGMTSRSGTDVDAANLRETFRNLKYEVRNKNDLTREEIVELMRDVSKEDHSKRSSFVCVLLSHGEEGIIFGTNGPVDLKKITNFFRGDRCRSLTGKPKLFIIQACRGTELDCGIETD
T1 sequence (P42574 176-277 limits assumed): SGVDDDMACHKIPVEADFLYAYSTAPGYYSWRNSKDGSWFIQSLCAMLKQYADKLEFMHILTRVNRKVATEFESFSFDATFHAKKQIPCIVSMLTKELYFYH
Experimental: The cleavage of N-(Ac-DEVD)-N′-(2,3,4,5-tetrafluorobenzoyl)-R110 (SEQ ID NO:5) (Ac-DEVD-R110-TFB) (SEQ ID NO:5) by caspase-3 was tested in a cell-free assay using recombinant enzyme. 10 μM of substrate was incubated with recombinant caspase-3 for 3 hours at 37° C. Control reactions included one sample with no enzyme (Background value) and one sample incubated in the presence of the caspase inhibitor, Ac-DEVD-CHO (SEQ ID NO:5) (Non-specific value).

Jurkat T leukemia cells = assay: Whole cell assay: cleavage of caspase-3 substrate in apoptotic Jurkat cells, flow cytometry; assay type: cell-based, human
Experimental: Jurkat T leukemia cells were grown in RPMI 1640 media (Life Technologies, Inc.) +10% FCS (Sigma Chemical Company) in a 5% CO2-95% humidity incubator at 37° C., and maintained at a cell density between 4 and 8×10^5 cells/ml. Cells were harvested at 200×g and resuspended at 1×10^6 cells/ml into RPMI 1640 media containing 10% FCS and 1 ml each were dispensed in 2-wells of a 6-well plate. The apoptosis inducer staurosporine was added at 0.5 μg/ml concentration and the plate was incubated for 2 hrs at 37° C. in a 5% CO2-95% humidity incubator. Cells were pelleted and incubated with 50 μM of substrate Ac-DEVD-R110-TFB (SEQ ID NO:5) for 2 hrs at 37° C. in serum-free RPMI medium. 500 μl PBS was added and samples were analyzed by flow cytometry. All flow cytometry analyses were performed on a FACScalibur (Becton Dickinson) using CellQuest analysis software.
The apoptosis inducer anti-Fas antibody (CH-11; MBL) was added at 200 ng/ml concentration and the plate was incubated for 2hrs at 37° C. in a 5% CO2-95% humidity incubator. Cells were pelleted and incubated with 50 μM of substrate Ac-DEVD-R110-TFB (SEQ ID NO:5) for 2 hrs at 37° C. in serum-free RPMI medium. 500 μl PBS was added and samples were analyzed by flow cytometry.
A pan-caspase inhibitor cbz-Val-Asp-fink(see W099/18781) was added to one of the wells. The apoptosis inducer staurosporine was added with and without the caspase inhibitor at 0.5 μg/ml concentration and the plate was incubated for 2 hrs at 37° C. in a 5% CO2-95% humidity incubator. Cells were pelleted and incubated with 50 μM of substrate Ac-DEVD-R110-TFB (SEQ ID NO:5) for 2hr at 37° C. in serum-free RPMI medium. 500 μl PBS was added and samples were analyzed by flow cytometry.

HL-60 cells = assay: Staining of whole, live HL-60 cells with aminopeptidase substrate; assay type: cell-based; conditions: 10 μM, 2 hours at 37° C.
Experimental: HL-60 cells (about 2×10^6) were incubated with 10 μM of N-Gly-R110-PFB for 2 hours at 37° C. in a CO2 incubator. Parallel samples were similarly incubated with the amino terminal-blocked compound, N-Cbz-Gly-R110. At the end of the incubation, the cells were harvested by centrifugation and resuspended in 50 μL of fresh medium without substrate. Aliquots of each cell suspension were placed in microslides and viewed on a Nikon inverted microscope with epifluorescent illumination.

aminopeptidases = assay: Cleavage of substrate by HL-60 cell lysate (aminopeptidases); assay type: biochemical; conditions: 37° C.; for fluorescent signal after incubation with cell lysate: HL-60 cell lysate
Experimental: N-Gly-R110-PFB was incubated with a lysate made from HL-60 cells, and the amount of fluorescence was measured at various times after incubation at 37° C. Parallel samples were run using the control substrate, N-Cbz-Gly-R110-PFB.

[1] = Fluorescence standard curve of dye under cell-free conditions (fluorescent microplate reader); assay type: physicochemical
Experimental: A standard curve consisting of 7 concentrations of N-pentafluorobenzoyl-Rhodamine 110 (0.5 to 20 μM) in a volume of 100 μL was prepared. The fluorescence of each concentration was measured (in triplicate) using a BioTek fluorescent microplate reader, and the signal was plotted as a function of dye concentration. The N-pentafluorobenzoyl-Rhodamine 110 curve was compared to a standard curve of R110 fluorescence prepared in the same way.

HL-60 lysates = assay: Cleavage of Z-DEVD-R110-PFB by HL-60 lysates; assay type: biochemical

SMILES: CC(=O)N[C@@H](CC(=O)O)C(=O)N[C@@H](CCC(=O)O)C(=O)N[C@H](C(=O)N[C@@H](CC(=O)O)C(=O)Nc1ccc2c(c1)Oc1cc(NC(=O)c3cc(F)c(F)c(F)c3F)ccc1C21OC(=O)c2ccccc21)C(C)C (stereo partly drawn) [Ac-DEVD-R110-TFB, N-(Ac-Asp-Glu-Val-Asp)-N′-(2,3,4,5-tetrafluorobenzoyl)-Rhodamine 110]
- increase in fluorescence over background and non-specific values (recombinant caspase-3; 10 μM substrate, recombinant caspase-3, 3 hours at 37° C.): roughly 50 fold
- cleavage of substrate under whole cell assay conditions, anti-Fas antibody induced apoptosis (Jurkat T leukemia cells; anti-Fas antibody 200 ng/ml 2 hrs, then 50 μM substrate 2 hrs at 37° C.): cleavage
- cleavage of substrate under whole cell assay conditions, staurosporine induced apoptosis (Jurkat T leukemia cells; staurosporine 0.5 μg/ml 2 hrs, then 50 μM substrate 2 hrs at 37° C.): cleavage

SMILES: O=C(CNC(=O)OCc1ccccc1)Nc1ccc2c(c1)Oc1cc(NC(=O)c3c(F)c(F)c(F)c(F)c3F)ccc1C21OC(=O)c2ccccc21 (stereo not drawn) [N-Cbz-Gly-R110-PFB, N-(Z-Gly)-N′-pentafluorobenzoyl-Rhodamine 110]
- fluorescence of whole cells incubated with substrate (HL-60 cells): did not fluoresce above background levels
- fluorescent signal after incubation with cell lysate (aminopeptidases): did not give a signal
- fluorescent signal after incubation with buffer only (no lysate) (aminopeptidases): did not give a signal

SMILES: Br.NCC(=O)Nc1ccc2c(c1)Oc1cc(NC(=O)c3c(F)c(F)c(F)c(F)c3F)ccc1C21OC(=O)c2ccccc21 (stereo not drawn) [N-Gly-R110-PFB, N-Gly-N′-pentafluorobenzoyl-Rhodamine 110 HBr]
- fluorescence of whole cells incubated with substrate (HL-60 cells): strong, homogeneously distributed, yellowish-green fluorescence
- fluorescent signal after incubation with cell lysate (aminopeptidases): strong fluorescent signal
- fluorescent signal after incubation with buffer only (no lysate) (aminopeptidases): very weak fluorescent signal

SMILES: Nc1ccc2c(c1)Oc1cc(NC(=O)c3c(F)c(F)c(F)c(F)c3F)ccc1C21OC(=O)c2ccccc21 (stereo not drawn) [N-pentafluorobenzoyl-Rhodamine 110, N-Pentafluorobenzoyl-Rhodamine 110]
- fluorescence compared to Rhodamine 110 ([1]; cell-free conditions): weaker fluorescent dye compared to Rhodamine 110

SMILES: Cl.N=c1ccc2c(-c3ccccc3C(=O)O)c3ccc(N)cc3oc-2c1 [Rhodamine 110, reference compound]
- higher fluorescence of R110 than N-pentafluorobenzoyl-Rhodamine 110 ([1]; each concentration tested, 0.5 to 20 μM, cell-free): 20 to 50 fold

SMILES: CC(C)[C@H](NC(=O)[C@H](CCC(=O)O)NC(=O)[C@H](CC(=O)O)NC(=O)OCc1ccccc1)C(=O)N[C@@H](CC(=O)O)C(=O)Nc1ccc2c(c1)Oc1cc(NC(=O)c3c(F)c(F)c(F)c(F)c3F)ccc1C21OC(=O)c2ccccc21 (stereo partly drawn) [Z-DEVD-R110-PFB, N-(Z-Asp-Glu-Val-Asp)-N′-pentafluorobenzoyl-Rhodamine 110]
- increase in fluorescence over the uncleaved substrate (recombinant caspase-3; recombinant caspase-3): greater than 10 fold
- cleavage by lysate from apoptotic HL-60 cells (HL-60 lysates): readily cleaved

SMILES: CC(C)[C@H](NC(=O)OCc1ccccc1)C(=O)NC(CC(=O)O)C(=O)CF (stereo partly drawn) [cbz-Val-Asp-fink]
- inhibition of staurosporine induced cleavage of Ac-DEVD-R110-TFB in whole cells (Jurkat T leukemia cells; staurosporine 0.5 μg/ml, 2 hrs): can be inhibited by the pan-caspase inhibitor

SMILES: CN[C@@H]1C[C@H]2O[C@@](C)([C@@H]1OC)n1c3ccccc3c3c4c(c5c6ccccc6n2c5c31)C(=O)NC4 [staurosporine]
- induction of apoptosis read out as cleavage of Ac-DEVD-R110-TFB (Jurkat T leukemia cells; inducer at 0.5 μg/ml, 2 hrs): leads to cleavage of the caspase-3 substrate
